Laboratory results reported in patent US20260207581A1, “Small Molecule Inhibitor for Inflammatory Pain Inhibition” (University of Rochester, priority 2023, published 2026).
Entries after “also recorded” stand apart in the source; their conditions may differ.

Experiments:
[1] = system: TMJ tissues; test: CFA injection rat model of inflammatory TMD: swelling, uCT and histology of TMJ tissues; type: in vivo
[2] = system: SETD1, IL-6 and MMP2 expression; test: qRT-PCR and Western blotting of selected inflammatory genes under TNFα; type: cell-based, rat
[3] = system: inflammatory genes, matrix proteins, adhesion molecules and neuropeptides in TMJ tissues; test: qRT-PCR analysis of gene expression in TMJ tissues of the CFA model; type: in vivo, rat
Description: To see if this reduction in inflammation and its associated damage could provide therapeutic benefit, the ability of PFI-2 to reduce inflammatory pain was examined. Animals were injected with saline or CFA and meal duration, a proxy for pain, was examined over a span of 21 days post-injection. […] Calcitonin gene-related peptide (CGRP) localization and expression in the synovial membrane were examined by immunostaining, where it was observed that CGRP was localization in synovial cells and neurons was increased in animals treated with CFA (FIG. 4C and FIG. 4D).
Expression of Osteogenic, Chondrogenic and Inflammatory Genes in a TMD model: To generate benchmark data for functional and mechanistic studies TMJ discs, synovia, and condyles are dissected and mRNA and protein expression levels of bone marker genes measured, including collagen type I (Col I), alkaline phosphatase (Alp), Runx2, Osterix (Osx), osteocalcin (Ocn), and bone sialoprotein (Ibsp), as well as cartilage marker genes such as collagen II, Sox 9, Col X, and biglycans. To characterize the effect of the YAP upregulator PFI-2 on inflammation and osteoclast formation, the expression of inflammatory cytokines (IL-1b, IL-6, TNF-α), NF-κB, MMPs (MMP2, MMP9 and MMP13), adhesion molecules (CDH11, ICAM, Integrin β1), and osteoclastogenesis-related genes (Rank, Rankl, Opg, Trap5b, and NFATc1) is detected using quantitative RT-PCR and Western blotting as described by Walker et al. (2010). Localization of these genes in the inflamed TMJ is further specified using immunofluorescence.
Inflammatory Changes in the Expression of Neuropeptides CGRP, NPY and SP1 in vivo and in vitro: For in vivo studies, rat TMJ discs, synovial membrane, condyle, trigeminal ganglia and trigeminal nucleus caudalis are collected bilaterally from saline-or CFA-treated rats for RNA and protein isolation, and histological analysis. The expression of CGRP, NPY, TAC1, and Galanin (GAL) at gene and protein levels are measured using qRT-PCR and Western blotting. For histology, tissues are fixed in 4% paraformaldehyde and prepared for paraffin sections as described previously (Lu et al, 2016a, b). Cells and neurons positive for CGRP, NPY, SP1 (an isoform of TAC1 protein) and Gal are visualized via immunofluorescence or immunohistochemistry using antibodies against CGRP, GAL, NYP, and TAC1 (Abcam). Expression levels of these genes and the numbers of immunoreactive cells are compared between different treatment groups.

[4] = system: IL-1β expression; test: Cultured condyle organs treated with IL-6, IL-1β immunostaining; type: cell-based; conditions: IL-6 plus PFI-2
[5] = target: T1, SETD7 (Rattus norvegicus, UniProt A0A8I6A0F7); test: SETD7 and YAP localization and protein methylation in TNF-α treated RSSCs; type: cell-based; conditions: RSSCs treated with TNF-α
T1 construct: endogenous in cells; host or cells: primary rat synovial mesenchymal stem cells (RSSCs)
Description: As a first step, the expression and localization of SETD7 and YAP are examined in RCs and RSSCs at the mRNA and protein level under physiological and inflammatory conditions. RCs and RSSCs are cultured with or without TNF-α for 6, 12, and 24 hours. Proteins and mRNAs from cultured cells are isolated for RT-PCR and Western Blot analyses. The localization of SETD7 and YAP in relationship toward each other is visualized by immunofluorescence, and the methylation levels and distribution of YAP in nuclei and cytoplasm are determined by Western blotting using anti-SETD7 and anti-YAP antibodies (Abcam). To determine whether YAP and SETD7 interact, co-immunoprecipitation assays is performed, and the degree of interaction between SETD7 and YAP is compared between TNF-α-treated cells and control cells (Ito et al. 2011).
Rat synovial mesenchymal stem cells (RSSCs) were cultured and examined for SETD7 nuclear localization.

[6] = system: YAP1; test: YAP / Sox9 immunolocalization in TMJ discs and condylar growth plate of the CFA model; type: in vivo, rat
Description: Because of this initial success, it was further examined if PFI-2 treatment could rescue inhibition of chondrocyte maturation and return YAP expression in the condylar growth plate of animals suffering from inflammation. To test the ability to repair damage, animals were injected with saline or CFA. After inflammation, a subset of the CFA-treated animals were also injected with PFI-2. Tissue samples from each were stained with H&E, safranin O, and PCNA, YAP was detected by immunostaining, and cartilage differentiation was determined by immunostaining for Sox 9 (FIG. 3A-FIG. 3O). The samples were also examined by RT-PCR for expression levels of collagen 2, collagen 10, Mmp 13 metalloproteinase, Runx2 bone transcription factor, and Sox 9 (FIG. 3P).
Here, the role of the Hippo pathway effectors YAP and TAZ is elucidated in an inflammatory TMD models. YAP and TAZ interact with DNA-binding factors of the TEAD family in the nucleus to regulate gene expression. […] First, the expression and subcellular localization of YAP is characterized under physiological and inflammatory conditions in TMJ tissues, RSSCs and RCs. The expression pattern of the YAP protein in TMJ tissues are elucidated by immunohistochemistry using anti-YAP antibody and the expression levels of YAP mRNA and protein is determined using qRT-PCR and Western blotting. […]

[7] = PFI-2 injected following CFA induction of inflammatory conditions

T1 sequence (A0A8I6A0F7 1-367): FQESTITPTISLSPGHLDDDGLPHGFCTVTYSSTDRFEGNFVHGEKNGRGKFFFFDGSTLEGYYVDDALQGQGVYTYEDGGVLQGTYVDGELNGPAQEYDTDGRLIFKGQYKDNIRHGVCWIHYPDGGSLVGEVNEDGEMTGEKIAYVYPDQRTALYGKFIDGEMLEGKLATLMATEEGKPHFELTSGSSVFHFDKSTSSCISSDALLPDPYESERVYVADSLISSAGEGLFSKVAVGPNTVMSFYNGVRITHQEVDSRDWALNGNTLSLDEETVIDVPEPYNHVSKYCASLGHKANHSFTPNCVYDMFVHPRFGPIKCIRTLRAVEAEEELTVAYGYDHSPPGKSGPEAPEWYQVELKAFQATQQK

O=C([C@@H](Cc1cccc(C(F)(F)F)c1)NS(=O)(=O)c1cc(F)c2c(c1)CCNC2)N1CCCC1 [PFI-2]
inflammation-induced retardation of chondrocyte differentiation / condylar growth plate structure [1, 7]: able to reverse it; also recorded: restored condyle growth plate structure and function; also recorded: reversed
bone volume, mechanical properties and thickness of functional condyle layers ([1]; inflammatory conditions, three PFI-2 delivery modalities): restores outcomes to near-physiological values
regional swelling / distance between the two ear tragi ([1]; rats, 48 hours after injection, CFA-induced (10% increase with CFA)): no swelling was observed
collagen fibers in the TMJ disc (Pico Sirius red staining) ([1]; rats, CFA model): lightened; also recorded: conversion to light red, thinner fibers
structure and function of fibrocartilage in the TMJ (H&E) ([1]; rats, CFA model): rescued the structure and function of fibrocartilage
thickness of the fibrous and proliferative cell layers / hypertrophic zones (H&E) ([1]; rats, CFA model): rescued; also recorded: reduced
TMJ disc thickening and fusion with the condyle (H&E) ([1]; rats, CFA model, paraffin-embedded TMJ tissues): rescued; also recorded: detachment of the TMJ disc and condyle
condylar bone volume and joint space between temporal fossa and condyle (uCT) ([1]; rats, CFA plus PFI-2 injection): rescued
fibrous adhesion of TMJ disc and condylar surface (Masson trichrome) ([1]; rats, CFA-induced inflammation): prevented the attachment; also recorded: released fibrous adhesion; also recorded: de-attached the TMJ disc from the condyle
TNFα-induced gene dysregulation (Western blotting) [2]: confirmed
TNFα-induced upregulation of SETD1, IL-6 and MMP2 expression (qRT-PCR) ([2]; PFI-2 at 1, 10, and 50 μM): inhibited by treatment with PFI-2 in a dose-dependent manner; also recorded: inhibited TNFα-induced upregulation in a dose-dependent manner
expression of CGRP, NPY and TAC in TMJ tissues (qRT-PCR) ([3]; CFA-PFI-treated (CP) vs CFA-treated (CV)): reduced to near-normal levels
expression of CGRP, NPY and TAC in TMJ tissues (qRT-PCR) ([3]; CFA-PFI-treated (CP) vs CFA-treated (CV), listed as PFI): almost reduced to normal levels
inflammatory gene / cytokine expression in TMD tissues (qRT-PCR) ([3]; rats, CFA model): inhibited the expression of inflammatory cytokines; also recorded: downregulated inflammatory gene expression
matrix protein and adhesion molecule expression in TMJ tissues (qRT-PCR) ([3]; rats, CFA-PFI-treated (CP) vs CFA-treated (CV)): reversed the upregulation
IL-1β expression (immunostaining) [4]: inhibited the expression of IL-18; also recorded: inhibited IL-1β expression
swelling of the articular surface (thickness of fibrous and proliferative cell zones) [4]: reversed the swelling of the articular surface
SETD7 nuclear localization [5]: blocked the effect of TNF-α on SETD7 nuclear localization
global protein methylation levels in whole cell lysates (Western blot) [5]: reduces methylation; also recorded: inhibited this effect
YAP expression and localization in the condylar growth plate [6, 7]: rebalance YAP1 expression; also recorded: re-localized YAP1 and SOX9 proteins; also recorded: returned YAP expression
YAP1 immunolocalization in TMJ discs ([6]; rats, CFA model): translocated YAP into nuclei
